The conditions of series [1]: WO03/106439; cited from earlier work.
Series [2] addresses T1, amyloid (aggregated Aβ1-42) injected into amygdaloid nucleus (Homo sapiens, UniProt P05067).
T1 construct: Aβ1-42 (manufactured by Wako) was dissolved in phosphate buffer (pH 7.4); purchased Wako
Briefly: confirmation of imaging of amyloid in brain (autoradiogram, Aβ1-42 injected rats). The format is in vivo, rat. The conditions noted are these: brain slice 60 minutes after intravenous injection, Aβ1-42. The protocol: (§1) (1) Aβ1-42 (manufactured by Wako) was dissolved in phosphate buffer (pH 7.4) and shaken at 37° C. for 72 hours, to obtain a 1 mg/mL suspension of aggregated Aβ (hereinafter referred to as amyloid suspension in the Examples).
(§2) (2) 2.5 μL (corresponding to […]) of the amyloid suspension was injected into an amygdaloid nucleus on one side of a male Wistar rat (7-week old). As a control, 2.5 μL of a phosphate buffered physiological saline solution (pH 7.4) was injected into an amygdaloid nucleus on the other side of the rat. The rats were examined 1 day after the injection of the amyloid suspension and the phosphate buffered physiological saline solution (pH 7.4).
(§3) (3) Compound 1 was dissolved in a 10 mg/mL ascorbic acid-containing physiological saline solution to obtain a sample solution (22 MBq/mL in radioactivity concentration in the sample solution). This solution was injected under thiopental anesthesia into the rat through the tail vein (dosage: 0.5 mL, dosed radioactivity: 11-13 MBq equivalent).
(§4) (4) Brain was removed 60 minutes after the injection to prepare a brain slice of 10 μm in thickness with a microtome (type: CM3050S, manufactured by LEICA). The brain slice was exposed to an imaging plate for 20 hours, and then image analysis was carried out by use of a Bio-imaging Analyzer (type: BAS-2500; manufactured by FUJIFILM Corporation).
(§5) Thus, it was confirmed that amyloid was deposited on the slice (FIG. 6b).
(§6) The same procedures as in Example 12 were performed except using a solution of Compound 2 in a 10 mg/mL ascorbic acid as a sample solution (the radioactive concentration of the sample solution was 25 MBq/mL).
(§7) (1) Aβ1-42 (manufactured by Wako) was dissolved in phosphate buffer (pH 7.4) and shaken at 37° C. for 72 hours, to obtain 1 mg/mL of a suspension of aggregated Aβ (hereinafter referred to as amyloid suspension in the Examples).
(§8) (3) A sample solution (30 MBq/mL in radioactivity concentration, Example 24) in which Compound 4 was dissolved in a 10 mg/mL ascorbic acid-containing physiological saline solution and a sample solution (30 MBq/mL in radioactivity concentration, Example 25) in which Compound 6 was dissolved in a 10 mg/mL ascorbic acid-containing physiological saline solution were prepared. This solution was injected under thiopental anesthesia into the rat through the tail vein (dosage: 0.5 mL, dosed radioactivity: 11-15 MBq equivalent).
(§9) Thus, it was confirmed that amyloid was deposited on the slice (FIG. 12 and FIG. 13).

Series [3] concerns amyloid (aggregated Aβ1-42) injected into amygdaloid nucleus. The series is described as above. The following applies: brain slice 60 minutes after intravenous injection. The class given is in vivo, rat. As for the experimental part: as §1, §2, §3, §4, §5, §6, §7, §8, §9
A short description of series [4]: transferability into brain and clearance after intravenous injection. The format is in vivo, rat. The conditions noted are these: for Radioactive distribution per unit weight in brain, After 2 min. / Radioactive distribution per unit weight in brain, After 5 min. / Radioactive distribution per unit weight in brain, After 30 min. / Radioactive distribution per unit weight in brain, After 60 min.: male Wistar rats, intravenous injection; for radioactive accumulation in brain two minutes after the injection (in words) / clearance from brain in 60 minutes (in words): rats, intravenous; for Radioactive distribution per unit weight in brain, After 2 min. / radioactive accumulation in brain two minutes after the injection (in words): 2 min. The protocol: Using Compound 1 (Example 10) and Compound 2 (Example 11), a time course change of radioactive accumulation in brain of male Wistar rats (7-week old) was measured.
A diethyl ether solution of Compound 1 (Example 10) prepared in Example 3, a diethyl ether solution of Compound 2 (Example 11) prepared in Example 6 and a diethyl ether solution of [^123I]-IMPY (Comparative Example 5) prepared in Reference Example 1 were each diluted with 10 mg/mL ascorbic acid-containing physiological saline solution to adjust to a radioactive concentration of 8-12 MBq/mL. 0.05 mL each of the prepared sample solutions was injected under thiopental anesthesia into the tail vein of the rats. The rats were sacrificed by bleeding from abdominal artery, and brains were removed and subjected to measurement of mass of brains and further subjected to measurement of radioactivity (hereinafter referred to as A in this Example) with a single channel analyzer (detector type: SP-20 manufactured by OHYO KOKEN KOGYO Co., Ltd.) 2, 5, 30 and 60 minutes after the injection. Further, the radioactivity level of the rest of the whole body was measured in the same manner as above (hereinafter referred to as B in this Example). Using these measurement results, radioactive distribution per unit weight of brain (% ID/g) at the respective time points were calculated in accordance with the following formula (3).
Three animals were used for the experiment at the respective time points.
Using Compound 4 and Compound 6, a time course change of radioactive accumulation in brain of male Wistar rats (7-week old) was measured.
Compound 4 (Example 22), Compound 6 (Example 23) and a solution of [^123I]-IMPY (Comparative Example 8) prepared above in Reference Example 1 were each diluted with a 10 mg/mL ascorbic acid-containing physiological saline solution to prepare solutions (20-31 MBq/mL in radioactive concentration). 0.05 mL each of the prepared sample solutions was injected under thiopental anesthesia into the tail vein of the respective Wistar rat (7-week old). The rats were sacrificed by bleeding from abdominal artery, and brains were removed and subjected to measurement of mass of brains and further subjected to measurement of radioactivity (hereinafter referred to as A in this Example) with a single channel analyzer (detector type: SP-20 manufactured by OHYO KOKEN KOGYO Co., Ltd.) 2, 5, 30 and 60 minutes after the injection. Further, the radioactivity level of the rest of the whole body was measured in the same manner as above (hereinafter referred to as B in this Example). Using these measurement results, radioactive distribution per unit weight of brain (% ID/g) at the respective time points were calculated in accordance with the following formula (5).

Series [5] can be described thus: partition coefficient based on the octanol extraction method. The class given is physicochemical. The following applies: octanol / 10 mmol/L phosphate buffer pH 7.4. As for the experimental part:
Partition coefficients based on the octanol extraction method (hereinafter referred to as log Poctanol) were measured, which are generally known as an indicator of permeability of compounds through the blood-brain barrier (hereinafter referred to as BBB).
A diethyl ether solution of Compound 1 prepared in Example 3 (Example 8), a diethyl ether solution of Compound 2 prepared in Example 6 (Example 9), and a diethyl ether solution of [^123I]-IMPY prepared in Reference Example 1 (Comparative Example 4) were each diluted with 10 mg/mL ascorbic acid-containing physiological saline solution, and adjusted to a radioactive concentration of 20-30 MBq/mL. To 2 mL of octanol, 10 μL each of the prepared sample solutions was added, 2 mL of 10 mmol/L phosphate buffer (pH 7.4) was added, followed by stirring for 30 seconds. After the mixture was centrifuged with a low-speed centrifuge (2000 rpm×60 min.), the octanol layer and the water layer were sampled each in an amount of 1 mL, and subjected to measurement of radioactivity count with an autowell gamma system (Type: ARC-301B, manufactured by Aloka). Using the obtained radioactivity count, log Poctanol was calculated in accordance with the equation (2).
A diethyl ether solution (Example 20) of Compound 4 prepared in Example 16, a diethyl ether solution (Example 21) of Compound 6 prepared in Example 19, and a diethyl ether solution (Comparative Example 7) of [^123I]-IMPY were each diluted with a 10 mg/mL ascorbic acid-containing physiological saline solution to adjust to a radioactive concentration of 20-30 MBq/mL. To 2 mL of octanol, 10 μL each of the prepared sample solution was added, and 2 mL of 10 mmol/L phosphate buffer (pH 7.4) was further added, followed by stirring for 30 seconds. After the mixture was centrifuged with a low-speed centrifuge (2000 rpm×60 min.), the octanol layer and the water layer were sampled each in an amount of 1 mL, and subjected to measurement of radioactivity count with an autowell gamma system (Type: ARC-301B, manufactured by Aloka). Using the obtained radioactivity count, log Poctanol was calculated in accordance with the equation (4).

Setting [6] is: Table 6 (Examples 20-21, Comparative Example 7).
The mark [7] stands for this setting: Table 4 (Examples 8-9, Comparative Example 4).

T1 sequence (P05067 672-713): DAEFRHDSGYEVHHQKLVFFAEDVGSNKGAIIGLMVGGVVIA

With `CN(C)c1ccc(-c2cn3cc(I)ccc3n2)cc1` [IMPY, 6-iodo-2-[4′-(N,N-dimethylamino)phenyl]imidazo[1,2-a]pyridine], the “reverse mutation test result” value in series [1] is recorded as “positive”.

Regarding `CC(=C(C#N)C#N)c1ccc2cc(N(C)CCF)ccc2c1` [FDDNP, 2-(1-{6-[(2-fluoroethyl)(methyl)amino]-2-naphthyl}ethylidene)malononitrile], the “reverse mutation test result” value in series [1] was “positive”.

For “2-[3′-(2″-hydroxyethoxy)phenyl]-6-[^123I]iodoimidazo[1,2-a]pyridine [Compound 4]”, the “accumulation of radioactivity in amygdaloid nucleus on the amyloid-injected side” value (from here on “accumulation … on the amyloid-injected side”) in series [2] is on record as “marked accumulation of radioactivity”. Moreover, in series [3], the “accumulation of radioactivity at sites other than the amyloid injected sites” value is “little accumulation of radioactivity” and the “accumulation of radioactivity in amygdaloid nucleus on the physiological saline-injected side” value was “no significant accumulation of radioactivity”. In addition, in series [4] (Table 7), the “Radioactive distribution per unit weight in brain, After 2 min.” value was found to be 0.56 % ID/g; the “Radioactive distribution per unit weight in brain, After 5 min.” value is on record as 0.28 % ID/g; the “Radioactive distribution per unit weight in brain, After 30 min.” value stood at 0.04 % ID/g; the “Radioactive distribution per unit weight in brain, After 60 min.” value is listed as 0.01 % ID/g. In series [4], the “radioactive accumulation in brain two minutes after the injection (in words)” value (“radioactive accumulation” below) is “significant accumulation” and the “clearance from brain in 60 minutes (in words)” value (shortened to “clearance from brain”) was “rapidly clear away”. In series [5] (setting [6]), the logPoctanol value is on record as 2.5.

Regarding “2-[4′-(2″-hydroxyethoxy)phenyl]-6-[^123I]iodoimidazo[1,2-a]pyridine [Compound 1]”, the “accumulation … on the amyloid-injected side” value in series [2] is reported as “marked accumulation of radioactivity”. Moreover, in series [3], the “accumulation of radioactivity at sites other than the amyloid injected sites” value is given as “little radioactive accumulation” and the “accumulation of radioactivity in amygdaloid nucleus on the physiological saline-injected side” value is “no significant accumulation of radioactivity”. For the same compound, in series [4] (Table 5), the “Radioactive distribution per unit weight in brain, After 2 min.” value is reported as 0.90 % ID/g; the “Radioactive distribution per unit weight in brain, After 5 min.” value was determined as 0.52 % ID/g; the “Radioactive distribution per unit weight in brain, After 30 min.” value came out at 0.06 % ID/g; the “Radioactive distribution per unit weight in brain, After 60 min.” value came to 0.01 % ID/g. In addition, in series [4], the “radioactive accumulation” value is given as “significant radioactive accumulation” and the “clearance from brain” value is listed as “rapidly clear away”. Further, the logPoctanol value in series [5] (setting [7]) is 1.8.

“2-[4′-(3″-hydroxypropoxy)phenyl]-6-[^123I]iodoimidazo[1,2-a]pyridine [Compound 6]”: the “accumulation … on the amyloid-injected side” value in series [2] is “marked accumulation of radioactivity”. Besides, in series [3], the “accumulation of radioactivity at sites other than the amyloid injected sites” value is on record as “little accumulation of radioactivity” and the “accumulation of radioactivity in amygdaloid nucleus on the physiological saline-injected side” value is on record as “no significant accumulation of radioactivity”. For the same compound, in series [4] (Table 7), the “Radioactive distribution per unit weight in brain, After 2 min.” value was 0.81 % ID/g; the “Radioactive distribution per unit weight in brain, After 5 min.” value was found to be 0.56 % ID/g; the “Radioactive distribution per unit weight in brain, After 30 min.” value came out at 0.07 % ID/g; the “Radioactive distribution per unit weight in brain, After 60 min.” value is 0.02 % ID/g. In addition, in series [4], the “radioactive accumulation” value was “significant accumulation” and the “clearance from brain” value is given as “rapidly clear away”. In series [5] (setting [6]), this compound returned a logPoctanol value of 2.1.

With “2-(4′-ethoxyphenyl)-6-[^123I]iodoimidazo[1,2-a]pyridine [Compound 2]”, in series [2], the “accumulation … on the amyloid-injected side” value is given as “marked accumulation of radioactivity”. For the same compound, in series [3], the “accumulation of radioactivity at sites other than the amyloid injected sites” value was “some radioactive accumulation” and the “accumulation of radioactivity in amygdaloid nucleus on the physiological saline-injected side” value is on record as “no significant accumulation of radioactivity”. Further, in series [4] (Table 5), the “Radioactive distribution per unit weight in brain, After 2 min.” value is 0.89 % ID/g; the “Radioactive distribution per unit weight in brain, After 5 min.” value was 0.66 % ID/g; the “Radioactive distribution per unit weight in brain, After 30 min.” value was 0.13 % ID/g; the “Radioactive distribution per unit weight in brain, After 60 min.” value amounted to 0.04 % ID/g. For the same compound, in series [4], the “radioactive accumulation” value was “significant radioactive accumulation” and the “clearance from brain” value is “rapidly clear away”. In series [5] (setting [7]), the logPoctanol value was found to be 2.1.

The record behind these values is patent US8207189B2, “Compound having affinity for amyloid” (Nihon Medi-Physics Co., Ltd., priority 2007, dated 2012).
